Reference: patent US20170157155A1, “METHOD OF TREATMENT OF NASOPHARYNGEAL CANCER” (Millennium Pharmaceuticals, Inc., priority 2012, published 2017)

Assays:
[1] = system: relapsed or refractory mantle cell lymphoma; conditions: international multi-center Phase II study; cited from earlier work
nasopharyngeal cancer = assay: Clinical response of nasopharyngeal cancer patients given the compound of formula (III-A) IV twice weekly; type: in vivo, human; conditions: for clinical response: IV injection days 1, 4, 8 and 11 of a 21-day cycle
Description: (1) Tissue Microarray (obtained from US Biomax, Inc.) of primary nasopharyngeal cancer (n=35) (2) Tissue Microarray of metastatic nasopharyngeal cancer (obtained from US Biomax, Inc.) (n=15) (3) Tissue Microarray of other histologies of head and neck cancers (obtained from US Biomax, Inc.) (n=68) (4) Archival primary tumor biopsy samples of patients with head and neck squamous cell cancers (n=14). All samples were obtained under the appropriate informed consent. The patients were administered the compound of formula (III-A) on a twice-weekly schedule (days 1, 4, 8 and 11 of a 21-day cycle) as an IV injection. Of the primary tumor samples in (4), there were three patients with nasopharyngeal cancer.

[2] = on exposure to aqueous solution or plasma; cited from earlier work
[3] = system: hematological and solid tumor xenograft models; conditions: range of hematological and solid tumor xenograft models; cited from earlier work

SMILES | activity in patients [1] | clinical response (nasopharyngeal cancer; Patient 1, metastatic nasopharyngeal cancer of a squamous cell type, tumor NFκB p65 H-score 300) | Responder/Non-responder (nasopharyngeal cancer; Patient 1, H-score 300) | clinical response (nasopharyngeal cancer; Patient 2, nasopharyngeal cancer, tumor NFκB p65 H-score 200) | Responder/Non-responder (nasopharyngeal cancer; Patient 2, H-score 200) | clinical response (nasopharyngeal cancer; Patient 3, nasopharyngeal cancer, tumor NFκB p65 H-score 160) | Responder/Non-responder (nasopharyngeal cancer; Patient 3, H-score 160) | hydrolysis to the active form MLN2238 [2] | anti-tumor activity [3]
CC(C)C[C@H](NC(=O)[C@H](Cc1ccccc1)NC(=O)c1cnccn1)B(O)O [bortezomib, N-2-pyrazinecarbonyl-L-phenylalanine-L-leucineboronic acid] | confirming the activity |  |  |  |  |  |  |  | 
CC(C)C[C@H](NC(=O)CNC(=O)c1cc(Cl)ccc1Cl)B1OC(=O)C(CC(=O)O)(CC(=O)O)O1 [formula (III-A), 2,2′-{2-[(1R)-1-({[(2,5-dichlorobenzoyl)amino]acetyl}amino)-3-methylbutyl]-5-oxo-1,3,2-dioxaborolane-4,4-diyl}diacetic acid] |  | durable partial response | Responder | disease progressed within 4 cycles | Non-responder | progressive disease | Non-responder | rapidly hydrolyzes | demonstrated anti-tumor activity
